Results published in US20110224297A1, “Methods of administering prostratin and structural analogs thereof” (priority 2008, published 2011).
Like-named read-outs stand apart in the source and are kept apart here.

Legend:
[1] = Stability in the formulation vehicle for in vivo studies; assay type: physicochemical; conditions: 10% DMSO: 10% Cremophor: 80%:0.9% Saline; even at 37° C. for at least 2 hr
Protocol: Drug was dissolved in vehicle (10% DMSO: 10% Cremophor: 80%:0.9% Saline) and then incubated at four different temperatures (37° C., RT, 4° C., and −20° C.) for up to 2 hr. Prostratin is stable in this formulation even at 37° C. for at least 2 hr.

[2] = In vitro metabolism in mouse liver microsomes; assay type: in vitro ADME
From the text: In vitro metabolism of prostratin was investigated using mouse, rat, monkey, and human liver microsomes (Gentest). […] Attempts to identify the metabolite by LC/MS/MS were unsuccessful due to the low amounts present in the reaction mixtures (FIG. 1).

[3] = system: latently infected ACH-2 cells; assay: HIV expression (reverse transcriptase activity in supernatant) in latently infected ACH-2 cells; assay type: cell-based
Protocol: The effect of prostratin on virus replication was assessed in latently infected ACH-2 and U1 cells by measuring the accumulation of reverse transcriptase activity in the supernatant of stimulated cells (Gustafson et al., 1992, J Med Chem 35(11): 1978-86).
Briefly, 4×10^4 cells in 100 μl fresh medium were mixed with another 100 μl of medium with or without prostratin or PMA in a 96-well microtiter plate. Plates were incubated for 24-72 h at 37° C. Following incubation, supernatants were harvested, centrifuged (to remove any residual cells) and tested for reverse transcriptase activity as previously described (Gustafson et al., 1992, J Med Chem 35(11): 1978-86).
In these experiments, two concentrations of cells were tested (40,000 and 100,000 cells/well). It is noteworthy that the basal levels of reverse transcriptase activities were much higher in ACH-2 cells than in U1 cells.

[4] = system: Salmonella typhimurium tester strains TA98, TA100, TA1535, and TA1537; assay: Salmonella/mammalian-microsome reverse mutation assay with confirmatory assay; assay type: cell-based; conditions: 100 to 5000 μg per plate; presence or absence of S9
From the text: The objective of this study was to evaluate the test article, prostratin, for the ability to induce reverse mutations either in the presence or absence of mammalian microsomal enzymes at 1) the histidine locus in the genome of several strains of Salmonella typhimurium and at 2) the tryptophan locus of Escherichia coli tester strain WP2uvrA.
The doses tested in the mutagenicity assay were selected based on the results of a dose range finding study using tester strains TA100 and WP2uvrA and ten doses of test article ranging from 6.67 to 5000 μg per plate, one plate per dose, both in the presence and absence of S9 mix.
The tester strains used in the mutagenicity assay were Salmonella typhimurium tester strains TA98, TA100, TA1535, and TA1537 and Escherichia coli tester strain WP2uvrA. The assay was conducted with five doses of test article in both the presence and absence of S9 mix along with concurrent vehicle and positive controls using three plates per dose. The doses tested were 100, 333, 1000, 3330, and 5000 μg per plate in both the presence and absence of S9 mix. The results of the initial mutagenicity assay were confirmed in an independent experiment.

[5] = Solubility limit after dosing in culture medium; assay type: physicochemical; conditions: plasma or biological fluid, kinetic from dmso stock, dosing volume of 1%
Protocol: Dimethylsulfoxide (DMSO) was the vehicle of choice for this study. […] The stock solution and its dilutions were dosed using a dosing volume of 1% (10 μL/ml) and the vehicle control cultures were treated with 10.0 μL/ml of DMSO.

[6] = Pharmacokinetic studies in mice; assay type: in vivo, CD2F1 mice
Protocol: Studies were conducted in CD2F1 mice using both the i.p. route (1.9 mg/kg) and the i.v. route (0.76 mg/kg). The vehicle was 10% DMSO: 10% Cremophor: 80%:0.9% saline for both routes. Doses used were preciously determined as maximally tolerated. Drug was detected out to 4 hr but was only quantifiable out to 3 hr post drug administration (see FIG. 5A, B). Data are presented as mean±SD where n=5. Data that were detected beyond 3 hr post drug administration are shown as “BLQ” (below the limit of quantification of the validated assay). Data were fit using 1 and 2 compartment pharmacokinetic models using ADAPT II computer program. In general the 2-compartment model provided a better fit for the data than did a 1-compartment model (Table 2). […] For the two-compartment model the situation was reversed (i.e. more variance for the model predicted PK parameters with lower residual values for the individual plasma concentration data).

[7] = Pharmacokinetics following intravenous and oral administration to rats; assay type: in vivo; conditions: for Vd / half-life / bioavailability: male; for bioavailability: three male rats
Protocol: In order to find out the best route of administration and the correct concentration of prostratin, the drug was administered as an intravenous infusion over three hours as well as a single and twice oral administration to 3 groups of rats. The goal of this experiment was to find out if greater amounts of prostratin can be administered over a longer period of time. This would enable obtaining median higher concentrations in the blood for a longer period of time that would be close to effective concentration found in in vitro studies.

[8] = mice, IP (1.9 mg/kg), 2-compartment model
[9] = mice, IV (0.76 mg/kg), 2-compartment model
[10] = mice, i.p. 1.9 mg/kg and i.v. 0.76 mg/kg
[11] = all three females, 1.2-mg/kg oral dose, males 2.4 mg/kg
[12] = female Animal No. C24047, 0.8 mg/kg i.v. infusion
[13] = female Animal No. C24048, 0.8 mg/kg i.v. infusion
[14] = female Animal No. C24049, 0.8 mg/kg i.v. infusion
[15] = female Animal No. C24050, 1.2-mg/kg oral dose, males 2.4 mg/kg
[16] = female Animal No. C24055, Group 3

SMILES: CC(=O)O[C@@]12C[C@@H](C)[C@@]3(O)[C@@H](C=C(CO)C[C@]4(O)C(=O)C(C)=C[C@@H]34)[C@@H]1C2(C)C [prostratin, 12-deoxyphorbol 13-acetate]
- stability in formulation [1]: stable
- metabolism (time-dependent loss of parent compound) [2]: greatest
- lowest dose to get a reliable increase in reverse transcriptase activity [3]: 50 ng/mL
- stimulation time at which sizeable reverse transcriptase activity is detected [3]: 24 h
- short incubation (pulsed stimulation) time leading to detectable reverse transcriptase activity ([3]; none after 1 h and 4 h): 6 h
- mean number of revertants per plate [4]: did not cause a positive increase
- solubility [5]: < 3500 µg/mL
- clearance ([6]; CD2F1, mouse, plasma, intraperitoneal and intravenous, mice, both the i.p and i.v. routes): 200 to 250 mL/min/kg
- half-life ([6]; CD2F1, mouse, plasma, ip, 1.9 mg/kg, mice, IP (1.9 mg/kg), 2-compartment model, read-out: T1/2 a (converted)): 0.34 h
- half-life ([6]; CD2F1, mouse, plasma, ip, 1.9 mg/kg, mice, IP (1.9 mg/kg), 2-compartment model, read-out: T1/2 b (converted)): 210 h
- half-life ([6]; CD2F1, mouse, plasma, ip, 1.9 mg/kg, mice, IP (1.9 mg/kg), read-out: T1/2 [1-compartment model] (converted)): 0.34 h
- half-life ([6]; CD2F1, mouse, plasma, iv, 0.76 mg/kg, mice, IV (0.76 mg/kg), 2-compartment model, read-out: T1/2 a (converted)): 0.46 h
- half-life ([6]; CD2F1, mouse, plasma, iv, 0.76 mg/kg, mice, IV (0.76 mg/kg), 2-compartment model, read-out: T1/2 b (converted)): 19.5 h
- half-life ([6]; CD2F1, mouse, plasma, iv, 0.76 mg/kg, mice, IV (0.76 mg/kg), read-out: T1/2 [1-compartment model] (converted)): 0.53 h
- CLt [6, 8]: 219.2 mL/min/kg
- Vc [6, 8]: 11.03 L/kg
- CLt [6, 9]: 252.7 mL/min/kg
- Vc [6, 9]: 17.32 L/kg
- time out to which drug was detected in plasma [6, 10]: 4 h
- time out to which drug was quantifiable in plasma [6, 10]: 3 h
- maximally tolerated dose ([6]; mice, i.p. route): 1.9 mg/kg
- maximally tolerated dose ([6]; mice, i.v. route): 0.76 mg/kg
- cumulative urinary excretion ([6]; pooled samples from five mice dosed i.p. (1.9 mg/kg), up to 24 hours): < 5 % of the administered dose
- mean AUC0-1.5 relative to mean value for the males [7, 11]: ~5.5 fold
- mean Cmax relative to mean value for the males [7, 11]: approximately 6.2 fold
- AUC0-2 relative to mean AUC0-2 for the males [7, 12]: approximately 4.2 fold
- plasma concentration at approximately 2 hours relative to mean male Cmax [7, 12]: approximately 3.8 fold
- AUC0-2 relative to mean AUC0-2 for the males [7, 13]: approximately 1.4 fold
- plasma concentration at approximately 2 hours relative to mean male Cmax [7, 13]: approximately 1.6 fold
- AUC0-3.083 relative to mean value for the males [7, 14]: ~2.6 fold
- Cmax relative to mean value for the males [7, 14]: approximately 3.7 fold
- AUC0-1.5 relative to mean value for the males [7, 15]: ~8.2 fold
- Cmax relative to mean value for the males [7, 15]: approximately 8.9 fold
- AUC0-4 relative to mean value for the males ([7]; female Animal No. C24052, 1.2-mg/kg oral dose, males 2.4 mg/kg): approximately 9.6 fold
- Cmax relative to mean value for the three males ([7]; female Animal No. C24055, 1.8 mg/kg then 1.0 mg/kg oral, Group 3): approximately 6.0 fold
- AUC0-1.5 relative to mean value for the three males [7, 16]: ~5.9 fold
- AUC0-4 relative to mean value for the three males [7, 16]: ~8.2 fold
- AUC0-10 relative to mean AUC0-10 for the males ([7]; last female of Group 2, 1.2-mg/kg oral dose, males 2.4 mg/kg): approximately 6.1 fold
- increase in exposure (mean AUC0-10) of 1.8-mg/kg BID versus single 2.4-mg/kg oral dose ([7]; male rats, Groups 3 and 2): approximately 1.5 fold
- Vd ([7]; rat, plasma, iv, 0.8 mg/kg, male rats, 0.8 mg/kg i.v. infusion, read-out: mean Vss): 2.22 L/kg
- Vd ([7]; rat, plasma, iv, 0.8 mg/kg, male rats, 0.8 mg/kg i.v. infusion, read-out: mean Vz): 6.41 L/kg
- half-life ([7]; rat, plasma, iv, 0.8 mg/kg, male rats, after 3-hour intravenous infusion 0.8 mg/kg, read-out: mean t1/2 (converted)): 2.49 h
- half-life ([7]; rat, plasma, po, 1.8 mg/kg, male Animal No. C24046, Group 3, 1.8 mg/kg BID oral, read-out: t1/2 (converted)): 7.47 h
- half-life ([7]; rat, plasma, po, 1.8 mg/kg, male rats, 1.8 mg/kg BID oral, after the second dose, read-out: mean t1/2 (converted)): 4.07 h
- half-life ([7]; rat, plasma, po, 2.4 mg/kg, male rats, single 2.4-mg/kg oral dose, read-out: mean t1/2 (converted)): 2.08 h
- bioavailability ([7]; rat, plasma, po, 2.4 mg/kg, single 2.4-mg/kg oral dose, read-out: Bioavailability (% F), mean): 13.3%
- bioavailability ([7]; rat, plasma, po, 2.4 mg/kg, single 2.4-mg/kg oral dose, read-out: Bioavailability (% F), range): 7.7 to 23.1%
- clearance ([7]; rat, plasma, iv, male rats, 0.8 mg/kg i.v. infusion, read-out: mean CL (converted)): 34.2 mL/min/kg
- concentration at 4 h ([7]; rat, plasma, male rats, 1.8 mg/kg oral, Group 3, read-out: mean plasma concentration just prior to the second oral dose at 4 hours): 17.9 ng/mL
- Cmax ([7]; rat, plasma, male rats, 0.8-mg/kg intravenous infusion over 3 hours): 159 ng/mL
- Cmax ([7]; rat, plasma, male rats, 1.8-mg/kg oral doses BID, following the second dose): 55.1 ng/mL
- Tmax ([7]; rat, plasma, male rats, 1.8-mg/kg oral doses BID, read-out: time at which Cmax was observed): 0.25 to 0.5 h
- Cmax ([7]; rat, plasma, male rats, single 2.4-mg/kg oral dose): 49.7 ng/mL
- concentration at 4 h ([7]; rat, plasma, male rats, single 2.4-mg/kg oral dose, Group 2, read-out: mean plasma concentration at 4 hours postdose): 11.5 ng/mL
